In article PMC11545510, “Goat Milk Protein-Derived ACE Inhibitory Peptide SLPQ Exerts Hypertension Alleviation Effects Partially by Regulating the Inflammatory Stress of Endothelial Cells” (Foods, 2024):
Where a SMILES comes first, the peptide text is derived from it.

How the values were obtained:
[1] = test system: eNOS; details: goat milk-derived ACE-inhibitory peptide; ref [39]; cited from earlier work
Method: Consequently, peptides SLPQ or PYVRYL were supplemented at concentrations ranging from 0 to 200 μg/mL in the following study. The bradykinin–NO signaling pathway can be activated by […] [44], and NO plays an important role in regulating blood pressure and the tension of vascular smooth muscle. Therefore, the content of NO in the ...

[2] = test system: EA.hy926 cells; assay: MTT cell viability; type: cell-based; details: 12 or 24 h; for viability of EA.hy926 cells: concentration lower than 200 μg/mL
Method: The cells were cultured in DMEM with 100 units/mL streptomycin–penicillin plus 2% FBS under an atmosphere of 5% CO2, 37 °C, and 100% humidity. The cells were seeded in 96-well plates at a density of 1 × 10^5 cells/well, and then treated with different concentrations of SLPQ (0, 12.5, 25, 50, 100, 200, 400, 800 μg/mL) or PYVRYL (0, 25, 50, 100, 200, 400, 800 μg/mL) for 12 or 24 h. After that, 0.05 mg/mL of MTT was added to each well and the plate was incubated for four hours at 37 °C. Finally, the culture media were replaced with 150 μL DMSO, and the OD value was detected at a wavelength of 570 nm (Infinity F200 microplate reader, Mainz, Germany).

Row | Compound | NO production and eNOS expression [1] | toxic effects on EA.hy926 cells ([2]; 400 μg/mL) | toxic effects on EA.hy926 cells ([2]; 800 μg/mL) | viability of EA.hy926 cells [2]
1 | SQPK | elevate NO production and eNOS expression | – | – | –
2 | CC(C)C[C@H](NC(=O)[C@@H](N)CO)C(=O)N1CCC[C@H]1C(=O)N[C@@H](CCC(N)=O)C(=O)O [SLPQ] (H-SLPQ-OH) | – | obvious toxic effects | obvious toxic effects | not affected
3 | CC(C)C[C@H](NC(=O)[C@H](Cc1ccc(O)cc1)NC(=O)[C@H](CCCNC(=N)N)NC(=O)[C@@H](NC(=O)[C@H](Cc1ccc(O)cc1)NC(=O)[C@@H]1CCCN1)C(C)C)C(=O)O [PYVRYL] (H-PYVRYL-OH) | – | obvious toxic effects | obvious toxic effects | not affected
